In US5116845A (priority 1990, dated 1992):

Key:
[1] = test system: P388 leukemia; assay: Antitumor activity against P388 leukemia (ip); type: in vivo, mice; conditions: maximum over the doses
[2] = test system: Gram-positive aerobic bacteria; type: cell-based
[3] = Solubility; type: physicochemical
[4] = test system: Gram-negative organisms; type: cell-based
[5] = test system: mice; assay: Acute toxicity, intramuscular; type: in vivo; conditions: 5 mg/kg intramuscular
[6] = test system: murine and human tumor cell lines; assay: In vitro cytotoxicity
[7] = test system: P388/VCR; assay: In vitro cytotoxicity (viable cell count)
[8] = test system: Moser and HCT-116 cells; conditions: versus murine B16-F10

| Compound | maximum T/C [1] [%] | activity against Gram-positive aerobic bacteria [2] | solubility in organic solvents ([3]; chloroform, methanol and ethanol, compared with BU-3420T) | susceptibility of Gram-negative organisms [4] | toxicity [5] | cytotoxicity [6] | cytotoxicity against VCR-resistant versus sensitive P388 cells [7] | solubility ([3]; chloroform) | solubility ([3]; dimethyl sulfoxide) | solubility ([3]; dimethylformamide) | solubility ([3]; dioxane) | solubility ([3]; ethanol) | solubility ([3]; ethyl acetate) | solubility ([3]; methanol) | solubility ([3]; n-hexane) | solubility ([3]; water) | resistance of Moser and HCT-116 relative to B16-F10 [8] |
| --- | --- | --- | --- | --- | --- | --- | --- | --- | --- | --- | --- | --- | --- | --- | --- | --- | --- |
| COC1=C(C(=O)O)C(C)C23OC24c2cc(OC(C)=O)c5c(c2NC3C#C/C=C\C#CC14)C(=O)c1c(OC(C)=O)ccc(OC(C)=O)c1C5=O (centres unmarked) [BU-3420T acetate] | 135 | intensely potent activity | much improved solubility | a little less susceptible |  |  |  |  |  |  |  |  |  |  |  |  |  |
| COC1=C(C(=O)O)C(C)C23OC24c2cc(O)c5c(c2NC3C#CC=CC#CC14)C(=O)c1c(O)ccc(O)c1C5=O (centres unmarked) [BU-3420T] | 135 | intensely potent activity |  | a little less susceptible | did not show any toxicity | potent cytotoxicity | same cytotoxicities | slightly soluble | soluble | soluble | soluble | slightly soluble | slightly soluble | slightly soluble | insoluble | insoluble |  |
| CO[C@@]12[C@H](COC(N)=O)C3=C(C(=O)C(C)=C(N)C3=O)N1C[C@@H]1N[C@@H]12 [Mitomycin C] |  |  |  |  |  |  |  |  |  |  |  |  |  |  |  |  | slightly more resistant |
